Measured values as given in ChEMBL document CHEMBL5550206, “Identification of 6-Fluorine-Substituted Coumarin Analogues as POLRMT Inhibitors with High Potency and Safety for Treatment of Pancreatic Cancer” (J Med Chem, 2024).
The source made the active and inactive calls. The rule behind the calls is not given here.

Key:
MIA PaCa-2 [1] = test: Inhibition of RNA pol I in human MIA PaCa-2 cells assessed as effect on 18S RNA level at 0.1 to 1 uM measured after 12 hrs by RT-qPCR analysis; assay type: cell-based; settings: dose 0.1-1 µM
MIA PaCa-2 [2] = test: Induction of cell arrest in human MIA PaCa-2 cells assessed as early apoptotic cells at 200 nM measured after 4 days by Annexin V-FITC and propidium iodide (PI) staining based assay (reference value: 1.07%); assay type: functional; settings: time 4 day
[3] = Toxicity in BALB/c mouse xenografted with human MIA PaCa-2 cells assessed as pathological change in liver at 25 to 100 mg/kg, iv once daily for 25 consecutive day after 2 weeks of cells injection by H and E staining based optical microscopic analysis; assay type: organism-based; settings: in vivo, 336 h, dose 25-100 mg/kg
MIA PaCa-2 [4] = test: Down-regulation of ND1 gene expression in human MIA PaCa-2 cells at 0.1 to 1 uM measured after 12 hrs by RT-qPCR analysis; assay type: functional, cell-based; settings: dose 0.1-1 µM
MIA PaCa-2 [5] = test: Induction of cell arrest in human MIA PaCa-2 cells assessed as viable cells at 25 nM measured after 4 days by Annexin V-FITC and propidium iodide (PI) staining based assay (reference value: 94.9%); assay type: functional; settings: MIA PaCa-2, 96 h, time 4 day, read-out: Activity
MIA PaCa-2 [6] = test: In vivo antitumor activity against human MIA PaCa-2 cells xenografted in BALB/c mouse assessed as reduction in tumor weight at 100 mg/kg, iv once daily for 25 consecutive day after 2 weeks of cells injection relative to control; assay type: functional; settings: MIA PaCa-2, 600 h, time 25 day
MIA PaCa-2 [7] = test: Inhibition of mitochondria coded ubiquinone oxidoreductase core subunit 1 (ND I) transcript level in human MIA PaCa-2 cells measured after 12 to 36 hrs of compound removal by RT-qPCR analysis; assay type: functional; settings: time 12-36 hrs
[8] = Toxicity in BALB/c mouse xenografted with human MIA PaCa-2 cells assessed as change in body weight at 25 to 100 mg/kg, iv once daily for 25 consecutive day after 2 weeks of cells injection; assay type: organism-based; settings: in vivo, 600 h, dose 25-100 mg/kg, time 25 day
MIA PaCa-2 [9] = test: Down-regulation of COX1 gene expression in human MIA PaCa-2 cells at 0.1 to 1 uM measured after 12 hrs by RT-qPCR analysis; assay type: functional, cell-based; settings: dose 0.1-1 µM
MIA PaCa-2 [10] = test: Antitumor activity against human MIA PaCa-2 cells xenografted in BALB/c nude mouse assessed as reduction in Ki67 protein expression at 25 to 100 mg/kg, iv once daily for 25 consecutive day after 2 weeks of cells injection by immunohistochemical analysis; assay type: functional, organism-based; settings: dose 25-100 mg/kg
MIA PaCa-2 [11] = test: Induction of cell arrest in human MIA PaCa-2 cells assessed as late apoptotic cells at 200 nM measured after 4 days by Annexin V-FITC and propidium iodide (PI) staining based assay (reference value: 3.23%); assay type: functional; settings: time 4 day
MIA PaCa-2 [12] = test: Reduction in basal oxygen consumption rate (OCR) in human MIA PaCa-2 cells incubated for 168 hrs; assay type: functional, cell-based; settings: dose 1-200 nM
MIA PaCa-2 [13] = test: Induction of cell arrest in human MIA PaCa-2 cells assessed as late apoptotic cells at 100 nM measured after 4 days by Annexin V-FITC and propidium iodide (PI) staining based assay (reference value: 3.23%); assay type: functional; settings: time 4 day
MIA PaCa-2 [14] = test: Induction of cell arrest in human MIA PaCa-2 cells assessed as accumulation of cells at G1 phase at 200 nM measured after 96 hrs by PI staining based flow cytometry (reference value: 64%); assay type: functional
MIA PaCa-2 [15] = test: Induction of cell arrest in human MIA PaCa-2 cells assessed as early apoptotic cells at 50 nM measured after 4 days by Annexin V-FITC and propidium iodide (PI) staining based assay (reference value: 1.07%); assay type: functional; settings: time 4 day
MIA PaCa-2 [16] = test: Induction of cell arrest in human MIA PaCa-2 cells assessed as accumulation of cells at G2 phase at 500 nM measured after 96 hrs by PI staining based flow cytometry (reference value: 11.2%); assay type: functional
MIA PaCa-2 [17] = test: Induction of cell arrest in human MIA PaCa-2 cells assessed as late apoptotic cells at 25 nM measured after 4 days by Annexin V-FITC and propidium iodide (PI) staining based assay (reference value: 3.23%); assay type: functional; settings: time 4 day
MIA PaCa-2 [18] = test: Effect on mitochondrial membrane potential loss in human MIA PaCa-2 cells assessed as change in membrane potential at 0.1 to 5 uM incubated for 96 hrs by JC-1 staining based flow cytometry analysis; assay type: functional, cell-based; settings: dose 0.1-5 µM
MIA PaCa-2 [19] = test: Reduction of protein complexes of mitochondrial electron transport chain in human MIA PaCa-2 cells reduction in UQCRC2 protein level by Western blot analysis; assay type: functional, cell-based; settings: dose 0.001-5 µM
MIA PaCa-2 [20] = test: Induction of cell arrest in human MIA PaCa-2 cells assessed as early apoptotic cells at 100 nM measured after 4 days by Annexin V-FITC and propidium iodide (PI) staining based assay (reference value: 1.07%); assay type: functional; settings: time 4 day
MIA PaCa-2 [21] = test: Induction of cell arrest in human MIA PaCa-2 cells assessed as necrotic cells at 25 nM measured after 4 days by Annexin V-FITC and propidium iodide (PI) staining based assay (reference value: 0.82%); assay type: functional; settings: time 4 day
MIA PaCa-2 [22] = test: Induction of cell arrest in human MIA PaCa-2 cells assessed as accumulation of cells at S phase at 500 nM measured after 96 hrs by PI staining based flow cytometry (reference value: 16.8%); assay type: functional
MIA PaCa-2 [23] = test: Reduction of protein complexes of mitochondrial electron transport chain in human MIA PaCa-2 cells reduction in NDUFB8 protein level by Western blot analysis; assay type: functional, cell-based; settings: dose 0.001-5 µM
MIA PaCa-2 [24] = test: Reduction in spare oxygen consumption rate (OCR) in human MIA PaCa-2 cells incubated for 168 hrs; assay type: functional, cell-based; settings: dose 1-200 nM
MIA PaCa-2 [25] = test: Induction of cell arrest in human MIA PaCa-2 cells assessed as accumulation of cells at G2 phase at 50 nM measured after 96 hrs by PI staining based flow cytometry (reference value: 11.2%); assay type: functional
MIA PaCa-2 [26] = test: Induction of cell arrest in human MIA PaCa-2 cells assessed as accumulation of cells at G1 phase at 500 nM measured after 96 hrs by PI staining based flow cytometry (reference value: 64%); assay type: functional
MIA PaCa-2 [27] = test: Induction of cell arrest in human MIA PaCa-2 cells assessed as viable cells at 500 nM measured after 4 days by Annexin V-FITC and propidium iodide (PI) staining based assay (reference value: 94.9%); assay type: functional; settings: MIA PaCa-2, 96 h, time 4 day, read-out: Activity
MIA PaCa-2 [28] = test: Inhibition of colony formation in human MIA PaCa-2 cells assessed as decrease in size of colony at 5 nM incubated for 14 days by crystal violet staining based assay; assay type: functional, cell-based; settings: time 14.0 day
[29] = Antiproliferative activity against human […] cells assessed as cell viability measured after 168 hrs incubation by SRB assay; assay type: functional, cell-based
MIA PaCa-2 [30] = test: Induction of cell arrest in human MIA PaCa-2 cells assessed as necrotic cells at 200 nM measured after 4 days by Annexin V-FITC and propidium iodide (PI) staining based assay (reference value: 0.82%); assay type: functional; settings: time 4 day
MIA PaCa-2 [31] = test: Induction of cell arrest in human MIA PaCa-2 cells assessed as late apoptotic cells at 50 nM measured after 4 days by Annexin V-FITC and propidium iodide (PI) staining based assay (reference value: 3.23%); assay type: functional; settings: time 4 day

With `CCN(CC)C(=O)[C@@H](C)Oc1cc2oc(=O)cc(-c3ccccc3C)c2cc1F` the inhibition (MIA PaCa-2 [1]) was “inactive”, the Activity (MIA PaCa-2 [2]) was 1.06% and the Activity [3] was “Non-Toxic”. For the same compound, the Activity (MIA PaCa-2 [4]) was “Active”, the viability at 0.025 µM (MIA PaCa-2 [5]) was 94.5% and the inhibition in vivo at 100 mg/kg (MIA PaCa-2 [6]) was 64.5%. The inhibition (MIA PaCa-2 [7]) was “Active”, the Activity [8] was “Non-Toxic” and the Activity (MIA PaCa-2 [9]) was “Active”. The Activity (MIA PaCa-2 [10]) was “Active”, the Activity (MIA PaCa-2 [11]) was 3.94% and the Activity (MIA PaCa-2 [12]) was “Dose-Dependent Effect”. The Activity (MIA PaCa-2 [13]) was 3.61%, the Activity (MIA PaCa-2 [14]) was 62.4% and the Activity (MIA PaCa-2 [15]) was 1.08%. The Activity (MIA PaCa-2 [16]) was 11.6%, the Activity (MIA PaCa-2 [17]) was 3.32% and the Activity (MIA PaCa-2 [18]) was “inactive”. The Activity (MIA PaCa-2 [19]) was “Dose-Dependent Effect”, the Activity (MIA PaCa-2 [20]) was 0.57% and the Activity (MIA PaCa-2 [21]) was 0.82%. For the same compound, the Activity (MIA PaCa-2 [22]) was 17.6%, the Activity (MIA PaCa-2 [23]) was “Dose-Dependent Effect” and the Activity (MIA PaCa-2 [24]) was “Dose-Dependent Effect”. It also gave an Activity (MIA PaCa-2 [25]) of 10.4%, an Activity (MIA PaCa-2 [26]) of 63.4% and a viability at 0.5 µM (MIA PaCa-2 [27]) of 94.3%. For the same compound, the inhibition (MIA PaCa-2 [28]) was “Active”, the IC50 [29] was 4 nM and the Activity (MIA PaCa-2 [30]) was 0.83%. For the same compound, the Activity (MIA PaCa-2 [31]) was 4.02%.
